US20260242365A1, “USES OF CERTAIN 1,4-OXAZEPANE-2-CARBOXAMIDES AS DPP1 INHIBITORS” (Insmed Incorporated, priority 2023, published 2026)

What was measured:
Type in all cases: cell-based
Neutrophil elastase (NE) = experiment: Neutrophil elastase activity in lysates of mouse bone marrow progenitor cells differentiated into neutrophils under DPP1 inhibitor
Method: (§1) Male or female C57BL/6 mice at the age of 8-14 weeks were used.
(§2) The two femurs and two tibias were removed out of a single mouse and gauze was used to remove the muscles and residue tissues. A sterile environment for surgical instruments and surgical sites is maintained. The bones were put into one 15-mL tube with cold sterile RPMI medium and placed on ice until further processing is performed.
(§3) A fresh 50-mL tube is placed on ice and a fresh 40/70 μm cell strainer (CLS431750, Sigma) is inserted into the top of the Falcon tube. Both ends of two femurs and two tibias are cut with bone cutters and flush bone marrow of all bones from one single mouse are placed into the cell strainer. 5-mL of ice-cold RPMI (RPMI medium containing 10 mM HEPES, pH 7.4) was used for each femur or tibia using a blunt needle (25 G needle), totaling about 20 mL per tube.
(§4) The cell suspension is centrifuged at 600×g for 5 min at 4° C. and the supernatant is carefully discarded.
(§5) The cell pellet is resuspended in 400 μL of ice-cold MACS buffer (PH7.2 PBS plus 0.5% BSA and 2 mM EDTA) for one adult mouse (optimized for 4 bones/mouse).
(§6) 100 μL Direct Lineage Cell Depletion Cocktail (which is enough for 100 million cells depletion) is added. The components are mixed well and incubated for 10 min. at 2° C.-8° C.
(§7) Magnetic separation LS Column (MACS, Miltenyi, 130 042 401) is prepared by placing it in the magnetic field of MACS Separator and rinsing with 3 mL of ice-cold MACS buffer.
(§8) Cell suspension is applied onto the column. Flow-through containing unlabeled cells, representing the enriched lineage negative cells, is collected.
(§9) Column is washed with 3×3 mL of ice-cold MACS buffer. Unlabeled cells that pass through are collected, representing the enriched lineage negative cells, and combined with the flow-through from prior step.
(§10) The cell suspension is centrifuged at 600×g for 5 min at 4° C., and the supernatant is carefully discarded. The pellet is washed once with 10 mL ice cold IMDM medium (IMDM GlutaMax (Gibco, 31980030) plus 10% FCS and 1% PS).
(§11) The cell pellet is resuspended with 2 mL ice-cold complete IMDM medium and the cells are counted. The cells are then ready for neutrophil differentiation.
(§12) The resulting undifferentiated bone marrow cells are in complete IMDM medium (IMDM with 10% FBS and 1% antibiotics); and the concentration of cells is adjusted to 1×10^5 cells/mL, supplemented with 50 ng/ml of SCF (BioLegend, 579704) and 50 ng/ml of IL 3 (BioLegend, 575504). The cells are subgrouped and the respective DPP1 inhibitors are added accordingly. Cells are then cultivated in a flask at 37° C. for 3 days.
(§13) Cells are checked each day for expansion and maintaining a final concentration between 2-10×10^5 cells/ml. On day 3, cells are counted. 3-4 million cells for each group are harvested and lystates prepared for NSPs activity detection. The left cells are resuspended at 2× 10^5 cells/mL in fresh medium supplemented with 50 ng/ml of SCF, 50 ng/ml of IL 3 and 50 ng/ml of G-CSF (BioLegend, 574604). The DPP1 inhibitors are refreshed in the medium. Cells are then cultivated in a flask at 37° C. for another 2 days.
(§14) On day 5, cells are counted. 3-4 million cells/condition are harvested and the cells are lysed to prepare samples for NSPs activity detection. The remaining cells are collected by centrifugation at 600×g for 5 min. The left cells are washed once in 1×PBS. After the wash, the pelleted cells are resuspended in complete IMDM medium at 4-6×10^5 cells/mL supplemented with 50 ng/ml of G-CSF only. The DPP1 inhibitors in the medium are refreshed. Cells incubate for additional 2 days, for a total of 7 days from day of harvest. On day 7, cells are counted. 3-4 million cells/condition are harvested and the cell lysed to prepare samples for NSPs activity detection.
(§15) 3-4 million cells are collected into Eppendorf tubes. Samples are spun down at 600×g, 4° C. for 5 min. The supernatant is removed and resuspended in 1 mL PBS. […]

DPP1 in HL-60 cells = biological target: T1, DPP1 in HL-60 cells (Homo sapiens, UniProt P53634); experiment: DPP1 Cell IC50 Assay; settings: H-Gly-Phe-AFC substrate
T1 construct: HL-60 cells (ATCC; host or cells: HL-60
T1 sequence (P53634 25-463): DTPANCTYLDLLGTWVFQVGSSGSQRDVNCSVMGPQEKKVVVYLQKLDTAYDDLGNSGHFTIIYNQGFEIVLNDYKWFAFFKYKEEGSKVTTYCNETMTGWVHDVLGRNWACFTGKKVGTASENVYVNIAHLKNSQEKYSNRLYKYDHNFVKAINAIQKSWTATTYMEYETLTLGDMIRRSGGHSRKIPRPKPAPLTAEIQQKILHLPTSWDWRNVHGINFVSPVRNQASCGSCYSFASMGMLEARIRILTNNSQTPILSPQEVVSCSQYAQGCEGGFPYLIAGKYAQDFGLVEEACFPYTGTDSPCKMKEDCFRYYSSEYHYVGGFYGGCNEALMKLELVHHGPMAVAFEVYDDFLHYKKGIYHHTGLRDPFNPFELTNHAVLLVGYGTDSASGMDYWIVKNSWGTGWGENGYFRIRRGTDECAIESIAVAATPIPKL
Method: HL-60 cells (ATCC; Manassas, VA) were maintained in RPMI-1640 supplemented with 20% heat-inactivated FBS and 1X Antibiotic Antimycotic (Cytiva; Marlborough, MA). Media was changed every three to four days and cells were not allowed to exceed 1×10^6 cells per mL. Prior to assay, cells were collected by centrifugation at 500 rcf for 3 minutes, resuspended in RPMI and counted. Cells were diluted in RPMI to a concentration of 5×10^5 live cells per mL and transferred to black 96-well plates for assay, 60 μL per well. Test articles were diluted in RPMI plus 0.5% DMSO, and 20 μL was added to each assay well. Compound was allowed to pre-incubate with cells with gentle shaking at 100 rpm for 60 minutes at 37° C. in a cell culture incubator maintained at 5% CO2, after which 20 μL of 500 μM H-Gly-Phe-AFC substrate (MP Biomedicals; Solon, OH) in RPMI was added to each well. Plates were returned to the incubator with shaking at 100 rpm for 30 minutes, after which fluorescence was measured at Excitation/Emission 400/505 nm. Percent (%) Inhibition was calculated from RFU values compared to control cell wells that received only RPMI plus 0.5% DMSO. IC50 values for each compound were calculated via the XLFit (IDBS Version 5.3.1.3) Add-On to Microsoft Excel using the four parameter fit equation y=(A+ ((B−A)/(1+ ((C/x)^D)))), which appears as equation number 205 (4 Parameter Logistic Model or Sigmoidal Dose-Response Model) in XLFit.

cathepsin G (CatG) = experiment: CatG activity in lysates of mouse bone marrow progenitor cells differentiated into neutrophils under DPP1 inhibitor; settings: for max inhibition of CatG activity observed: regardless of day
Method: as §1, §2, §3, §4, §5, §6, §7, §8, §9, §10, §11, §12, §13, §14, §15

| Compound | Neutrophil Elastase Activity (% reduction from control) (Neutrophil elastase (NE); 0.02 μM, Day 3) | Neutrophil Elastase Activity (% reduction from control) (Neutrophil elastase (NE); 0.02 μM, Day 5) | Neutrophil Elastase Activity (% reduction from control) (Neutrophil elastase (NE); 0.02 μM, Day 7) | Neutrophil Elastase Activity (% reduction from control) (Neutrophil elastase (NE); 0.1 μM, Day 3) | Neutrophil Elastase Activity (% reduction from control) (Neutrophil elastase (NE); 0.1 μM, Day 5) | Neutrophil Elastase Activity (% reduction from control) (Neutrophil elastase (NE); 0.1 μM, Day 7) | maximum inhibition of NE activity observed (Neutrophil elastase (NE); regardless of day) | IC50 (DPP1 in HL-60 cells) | CatG Activity (% reduction from control) (cathepsin G (CatG); 0.02 μM, Day 3) | CatG Activity (% reduction from control) (cathepsin G (CatG); 0.02 μM, Day 5) | CatG Activity (% reduction from control) (cathepsin G (CatG); 0.02 μM, Day 7) | CatG Activity (% reduction from control) (cathepsin G (CatG); 0.1 μM, Day 3) | CatG Activity (% reduction from control) (cathepsin G (CatG); 0.1 μM, Day 5) | CatG Activity (% reduction from control) (cathepsin G (CatG); 0.1 μM, Day 7) | max inhibition of CatG activity observed (cathepsin G (CatG)) | other results |
| --- | --- | --- | --- | --- | --- | --- | --- | --- | --- | --- | --- | --- | --- | --- | --- | --- |
| COC1CNC[C@@H](C(=O)N[C@H](C#N)Cc2ccc(-c3ccc4oc(=O)n(C)c4c3)cc2)OC1 (mixture of isomers) [INSM-202, (6-rac)-(2S)—N-[(1S)-1-cyano-2-[4-(3-methyl-2-oxo-2,3-dihydro-1,3-benzoxazol-5-yl)phenyl]ethyl]-6-methoxy-1,4-oxazepane-2-carboxamide] | 86% | 80% | 89% | 78% | 90% | 88% | ~ 85% | 1.1 ± 0.2 nM | 93% | 94% | 99% | 100% | 100% | 100% | ~ 95% | – |
| Cn1c(=O)oc2ccc(-c3ccc(C[C@@H](C#N)NC(=O)[C@@H]4CNC[C@H](O)CO4)cc3)cc21 (single isomer, unassigned) [INSM-201, (2S,6S*)—N-[(1S)-1-cyano-2-[4-(3-methyl-2-oxo-2,3-dihydro-1,3-benzoxazol-5-yl)phenyl]ethyl]-6-hydroxy-1,4-oxazepane-2-carboxamide] | 67% | 42% | 78% | 83% | 83% | 84% | – | 13.4 ± 4.1 nM | 46% | 27% | 78% | 90% | 94% | 98% | – | reduction in NE activity (Neutrophil elastase (NE)): concentration-dependent reduction in NE activity; maximum inhibition of NE activity observed (Neutrophil elastase (NE); at 0.1 μM regardless of day): ~ 85%; NE inhibition at low dose, fluctuations depending on the day (range) (Neutrophil elastase (NE); low dose, range over days): 42-78%; reduction in CatG activity (cathepsin G (CatG)): concentration-dependent reduction in CatG activity; max inhibition of CatG activity observed (cathepsin G (CatG); at 1 μM): ~ 95%; CatG inhibition at low dose, fluctuations depending on the day (range) (cathepsin G (CatG); low dose, range over days): 27-78% |
| COC1CNC[C@@H](C(=O)N[C@H](C#N)Cc2ccc(-c3ccc4oc(=O)n(C)c4c3)cc2)OC1 (single isomer, unassigned) [INSM-203, (2S,6R*)—N-[(1S)-1-cyano-2-[4-(3-methyl-2-oxo-2,3-dihydro-1,3-benzoxazol-5-yl)phenyl]ethyl]-6-methoxy-1,4-oxazepane-2-carboxamide] | 89% | 82% | 84% | 91% | 84% | 86% | ~ 85% | 0.6 ± 0.01 nM | 93% | 97% | 94% | 99% | 100% | 96% | ~ 95% | – |
